Laboratory results from publication PMC11684029, “Discovery of VU6024578/BI02982816: An mGlu1 Positive Allosteric Modulator with Efficacy in Preclinical Antipsychotic and Cognition Models” (Journal of Medicinal Chemistry, 2024).
Values after ≈ are worked out from the molar mass of the structure shown. Values joined by “and” are separate entries in the source; they are usually repeats but may differ in a detail not shown here. Identical values can stand only once. Like-named read-outs stand apart in the source and are kept apart here.

Assays:
C57BL/6JRj mice = assay: N1 sensory gating, MK-801 induced deficit; assay type: in vivo; conditions: mouse, 10 mg/kg s.c.
Source text: We have also employed here event-related potentials (ERPs) and auditory-evoked oscillations, which serve as critical translational biomarkers, to assess the impact of our investigational drug on sensory processing and cognitive functions, providing valuable data on its potential efficacy in treating disorders like schizophrenia. Detailed description of the methodology, setup specifications and recording procedure and analysis of the 40 Hz auditory steady-state response (ASSR) protocol can be found in Schuelert et al.[27] […] Reduced entrainment of gamma oscillation reflects abnormalities in basic sensory registration and processing but is also associated with impaired higher cognitive functions.[32] ASSR can also be reliably impaired preclinically by different NMDA receptor antagonists.[33],[34] […] Abnormalities associated with the filtering or “gating” of sensory information are among the most consistent findings in schizophrenia research.[35] […]
Mice were placed in a plexiglass cage in an attenuated sound box and allowed to adapt to their environment for 20 min before subcutaneous administration of VU6024578 0.8, 4, and 10 mg/kg or vehicle (20% HP-β-CD in water). […] An infrared sensor on the Neurologger recorded the infrared trigger signals and trigger signals were saved in an individual trigger channel. […]

rat IP PBL study = assay type: in vivo; conditions: 3 mg/kg IP, at Tmax
Source text: Thus, 19d was a stable chemical entity in vivo. […] Overall, the rat PK and CNS penetration was supportive of in vivo work and progression down the development flow-chart.

[1] = intrinsic clearance, predicted hepatic clearance; assay type: in vitro ADME, human; conditions: in vitro predicted hepatic clearance
Description: Human or rat hepatic microsomes (0.5 mg/mL) and 1 μM test compound were incubated in 100 mM potassium phosphate pH 7.4 buffer with 3 mM MgCl2 at 37 °C with constant shaking. After a 5 min preincubation, the reaction was initiated by addition of NADPH (1 mM). At selected time intervals (0, 3, 7, 15, 25, and 45 min), aliquots were taken and subsequently placed into a 96-well plate containing cold acetonitrile with internal standard (50 ng/mL carbamazepine). Plates were then centrifuged at 3000 rcf (4 °C) for 10 min, and the supernatant was transferred to a separate 96-well plate and diluted 1:1 with water for LC/MS/MS analysis. The in vitro half-life (T1/2, min, eq 1), intrinsic clearance (CLint, mL/min/kg, eq 2) and subsequent predicted hepatic clearance (CLhep, mL/min/kg, eq 3) was determined employing the following equations: [drawing 2] 1 where k represents the slope from linear regression analysis of the natural log percent remaining of test compound as a function of incubation time [drawing 3] 2
^ascale-up factors: of 20 (human) or 45 (rat) [drawing 4] 3 where Qh (hepatic blood flow, mL/min/kg) is 21 (human) or 70 (rat).

rat mGlu1 = rat mGlu1 (Rattus norvegicus, UniProt P23385); assay: mGlu1 calcium mobilization PAM assay; assay type: cell-based
Chain of rat mGlu1 (P23385 19-1199): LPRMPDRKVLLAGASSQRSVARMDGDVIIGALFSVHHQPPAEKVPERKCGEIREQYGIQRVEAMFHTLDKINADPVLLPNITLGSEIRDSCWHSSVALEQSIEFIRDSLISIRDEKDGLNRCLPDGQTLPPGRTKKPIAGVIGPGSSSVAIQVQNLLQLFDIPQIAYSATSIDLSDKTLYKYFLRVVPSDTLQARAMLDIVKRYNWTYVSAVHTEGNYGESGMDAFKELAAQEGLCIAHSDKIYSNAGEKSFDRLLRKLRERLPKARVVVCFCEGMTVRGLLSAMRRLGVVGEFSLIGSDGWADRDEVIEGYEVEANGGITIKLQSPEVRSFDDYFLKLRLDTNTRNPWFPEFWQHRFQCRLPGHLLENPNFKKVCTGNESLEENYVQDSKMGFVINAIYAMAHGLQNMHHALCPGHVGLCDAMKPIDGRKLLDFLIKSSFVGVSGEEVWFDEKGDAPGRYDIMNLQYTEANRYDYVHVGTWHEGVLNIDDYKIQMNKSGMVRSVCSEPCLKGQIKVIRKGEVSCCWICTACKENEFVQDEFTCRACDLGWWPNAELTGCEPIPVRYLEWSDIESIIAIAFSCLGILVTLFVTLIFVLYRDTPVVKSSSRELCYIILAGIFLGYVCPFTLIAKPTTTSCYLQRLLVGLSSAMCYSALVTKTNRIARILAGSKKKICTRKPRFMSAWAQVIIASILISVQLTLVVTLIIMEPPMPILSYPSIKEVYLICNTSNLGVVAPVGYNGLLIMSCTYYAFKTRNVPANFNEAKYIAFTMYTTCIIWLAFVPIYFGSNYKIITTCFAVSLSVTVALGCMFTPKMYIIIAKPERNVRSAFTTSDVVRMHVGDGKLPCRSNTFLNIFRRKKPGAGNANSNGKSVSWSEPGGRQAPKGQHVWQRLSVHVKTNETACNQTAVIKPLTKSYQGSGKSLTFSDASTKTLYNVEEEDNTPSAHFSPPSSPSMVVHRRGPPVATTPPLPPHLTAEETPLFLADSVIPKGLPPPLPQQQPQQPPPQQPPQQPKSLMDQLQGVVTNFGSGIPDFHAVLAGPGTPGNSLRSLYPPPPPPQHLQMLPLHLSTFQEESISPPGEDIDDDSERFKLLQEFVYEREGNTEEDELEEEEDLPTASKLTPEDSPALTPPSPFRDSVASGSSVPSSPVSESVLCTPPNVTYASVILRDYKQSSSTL

brain homogenate binding = assay type: in vitro ADME, rat; conditions: fraction unbound
4-strain ± S9 = assay: Ames test
[2] = solubility (kinetic, FaSSIF, FaSSGF); assay type: physicochemical
Description: Over the course of the mGlu1 PAM program, 19d became an assay standard and was assayed multiple times, affording refined potency values.[20]

Adenosine A1 = molecular target: T1, Adenosine A1 (Homo sapiens, UniProt P30542); assay: Eurofins radioligand binding panel; conditions: antagonist radioligand
T1 construct: Eurofins
T1 sequence (P30542 whole entry): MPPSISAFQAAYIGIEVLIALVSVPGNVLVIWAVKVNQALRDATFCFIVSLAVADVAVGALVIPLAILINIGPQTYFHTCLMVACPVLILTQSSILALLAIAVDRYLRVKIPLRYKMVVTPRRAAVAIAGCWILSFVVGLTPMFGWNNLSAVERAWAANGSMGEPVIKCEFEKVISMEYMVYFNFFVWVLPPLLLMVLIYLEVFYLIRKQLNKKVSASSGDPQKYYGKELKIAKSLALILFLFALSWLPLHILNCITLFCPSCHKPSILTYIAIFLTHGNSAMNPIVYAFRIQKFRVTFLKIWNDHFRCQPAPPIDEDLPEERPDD
Source text: Table S1. Eurofins Lead Profiling Screen Data
This is a radioligand binding panel of 80 targets including GPCRs, ion channels, transporters and nuclear hormones. Biochemical assay results are presented as the percent inhibition of specific […]
Results showing an inhibition or stimulation higher than 50% are considered to represent significant effect and are highlighted […]
Target / Protein Species % Inhibition at 10

**Q.** Which “N1 sensory gating deficit induced by MK-801” value (C57BL/6JRj mice) does the source give for `Cn1nc(-c2ccnn2C)cc1CNC(=O)c1cc(-c2ccco2)ccc1Cl` [Compound 19d, 2-Chloro-N-((1,2′-dimethyl-1H,2’H-[3,3′-bipyrazol]-5-yl)methyl)-5-(furan-2-yl)benzamide] here?
**A.** The value was “reversed”.

**Q.** What about the “Br[unbound]” value (rat IP PBL study) of the same compound?
**A.** The value was 68 nM.

**Q.** What about the “CLhep, human” value [1] of the same compound?
**A.** The value was 16 mL/min/kg and 15.8 mL/min/kg.

**Q.** What about the EC50 (rat mGlu1; PAM, calcium flux) of the same compound?
**A.** The EC50 was 0.046 µM.

**Q.** And the “rat mGlu1 Glumax” value (rat mGlu1; PAM, calcium flux)?
**A.** The value was 124%.

**Q.** And the “rat mGlu1 pEC50” value (rat mGlu1; n = 110)?
**A.** The value was 7.39 ± 0.02.

**Q.** What about the rat fubrain (brain homogenate binding) of the same compound?
**A.** The rat fubrain was 0.034.

**Q.** What about the Ames test result (4-strain ± S9) of the same compound?
**A.** Its Ames test result is “negative”.

**Q.** And the solubility ([2]; FaSSGF, fassgf or other biorelevant, read-out: FaSSGF solubility)?
**A.** The solubility was 2.5 µM (≈ 0.99 µg/mL).

**Q.** And the solubility ([2]; FaSSIF, read-out: FaSSIF solubility)?
**A.** Its solubility is 2.5 µM (≈ 0.99 µg/mL).

**Q.** And the solubility kinetic ([2]; pH 7.4, aqueous buffer, kinetic from dmso stock)?
**A.** Its solubility kinetic is 4.1 µM (≈ 1.62 µg/mL).

**Q.** What about the inhibition at 10 µM (Adenosine A1) of the same compound?
**A.** Its inhibition at 10 µM is 8%.
